Results on 2 compounds are retold here after ChEMBL document CHEMBL1137360, “Structure-activity relationships of a novel series of urotensin II analogues: identification of a urotensin II antagonist” (J Med Chem, 2006).

Active and inactive are the calls of the source. No cut-off for these calls is given here. Positions of bridges follow the written chain, without caps; N, C: chain ends. Residues, ends and D or L forms follow the SMILES beside them.

For assay [1], the target named is T1, Urotensin-2 receptor (Rattus norvegicus, UniProt P49684).
T1 sequence (P49684 whole entry): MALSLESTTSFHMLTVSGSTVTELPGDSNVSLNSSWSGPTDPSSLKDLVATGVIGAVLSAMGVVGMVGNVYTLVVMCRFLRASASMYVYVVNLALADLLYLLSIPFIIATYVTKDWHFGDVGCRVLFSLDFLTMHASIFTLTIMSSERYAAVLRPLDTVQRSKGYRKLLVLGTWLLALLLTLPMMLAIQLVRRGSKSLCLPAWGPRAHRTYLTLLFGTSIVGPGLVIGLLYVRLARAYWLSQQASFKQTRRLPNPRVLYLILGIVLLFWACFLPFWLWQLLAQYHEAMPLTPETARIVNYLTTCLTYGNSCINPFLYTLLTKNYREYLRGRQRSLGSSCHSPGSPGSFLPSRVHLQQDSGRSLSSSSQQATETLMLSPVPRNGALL
Description: Antagonist potency against human urotensin-2-induced contraction of rat aortic ring. As to conditions: read-out: pA2 (converted). The assay is classed as functional, tissue-based, Aorta.

The species named for assay [2] is Rattus norvegicus. Description: Agonist activity in rat aortic ring contraction assay. The assay is classed as functional. As to conditions: Aorta.
Assay [3] addresses T2, Urotensin-2 receptor (Homo sapiens, UniProt Q9UKP6).
T2 sequence (Q9UKP6 whole entry): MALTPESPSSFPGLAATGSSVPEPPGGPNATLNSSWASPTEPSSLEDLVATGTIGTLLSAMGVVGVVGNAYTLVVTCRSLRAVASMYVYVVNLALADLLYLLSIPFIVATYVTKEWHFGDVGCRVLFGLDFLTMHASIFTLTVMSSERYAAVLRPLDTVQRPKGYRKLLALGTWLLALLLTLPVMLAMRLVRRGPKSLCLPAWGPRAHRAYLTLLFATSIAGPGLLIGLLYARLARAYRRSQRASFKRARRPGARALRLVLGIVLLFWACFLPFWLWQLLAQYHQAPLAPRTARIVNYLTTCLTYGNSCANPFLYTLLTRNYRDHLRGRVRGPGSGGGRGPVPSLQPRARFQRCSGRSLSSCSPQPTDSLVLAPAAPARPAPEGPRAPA
The assay is described as follows: Displacement of [125I]human urotensin-2 from human GPR14 transfected in CHO cells. The assay is classed as cell-based.

For assay [4], the target named is T3, Urotensin-2 receptor (Rattus norvegicus) (UniProt P49684).
T3 sequence (whole entry): T1 sequence (P49684 whole entry)
Description: Antagonist activity against 0.1 uM human urotensin-2-induced contraction of rat aortic ring. The assay is classed as functional, tissue-based. Further details: scale not given: the % may be the effect or the level left. As to conditions: Aorta.

The species entered for assay [5] is Rattus norvegicus. The assay is described as follows: Agonist activity in rat aortic ring contraction assay relative to 1 uM phenylephrine. The assay is classed as functional. As to conditions: Aorta.
The species named for assay [6] is Rattus norvegicus. The assay is described as follows: Agonist activity in rat aortic ring contraction assay relative to 0.1 uM phenylephrine. The assay is classed as functional, Aorta.
Assay [7] concerns the target T3, Urotensin-2 receptor (Rattus norvegicus). The assay is described as follows: Antagonist activity against 1 uM human urotensin-2-induced contraction of rat aortic ring. The assay is classed as functional, tissue-based. As to conditions: Aorta.

As to `CC(C)[C@H](NC(=O)[C@@H]1CSSC[C@H](NC(=O)[C@@H](N)CC(=O)O)C(=O)N[C@@H](CC2CCCCC2)C(=O)N[C@@H](Cc2c[nH]c3ccccc23)C(=O)N[C@@H](CCCCN)C(=O)N[C@@H](Cc2ccc(O)cc2)C(=O)N1)C(=O)O`, on Urotensin-2 receptor [1], the Kb is 813 nM. This compound gave an EC50 in the assay filed under Rattus norvegicus [2] of over 10000 nM. Moreover, at Urotensin-2 receptor [3], the Ki is 407 nM. This compound also had an Activity in assay [4] of 95.7%. In addition, the outcome in the assay filed under Rattus norvegicus [5] was inactive.
`CC(C)C[C@@H]1NC(=O)[C@@H](NC(=O)[C@@H](N)CC(=O)O)CSSC[C@@H](C(=O)N[C@H](C(=O)O)C(C)C)NC(=O)[C@H](Cc2ccc(O)cc2)NC(=O)[C@H](CCCCN)NC(=O)[C@H](Cc2c[nH]c3ccccc23)NC1=O` (H-DCLWKYCV-OH; disulfide 2-7) had an EC50 in the assay listed under Rattus norvegicus [2] of over 10000 nM. At Urotensin-2 receptor [3], affinity was put at a Ki of 132 nM. Moreover, in the assay listed under Rattus norvegicus [6], the Activity was 38.7%. Moreover, the outcome in assay [7] was inactive.
